“Also recorded” adds a separate entry of the source. Square brackets hold non-standard residues; d marks the D form. Peptide text beside a SMILES is read from it.

Assay type in all cases: cell-based, human
Assay [1] has as its system FAPs from M^CT, FibM^CT and FibM^OP. The assay can be described thus: COL7A1 immunostaining as a readout of ECM production in FAPs treated with ET-1 +/- antagonist. Conditions: 3 days. From the text: (§1) Human FAPs cells were isolated from muscle biopsies obtained during surgical procedures via Myobank, affiliated to EuroBioBank, after informed consent in accordance with European recommendations and French legislation (authorization AC-2019-3502). Human FAPs isolated here as the CD56 negative cell fraction (Périé, S. et al. 2006), are obtained from control skeletal muscle: M^CT, control fibrotic cricopharyngeal muscle (CPM): FibM^CT, OPMD fibrotic CPM with exacerbated levels of fibrosis: FibM^OP, and fibrotic muscle from inclusion body myositis patients: FibM^IBM. All tested fibrotic muscle are skeletal fibrotic muscle. These cells expressed predominantly PDGFRa, CD90 and CD105 known markers of Fibro/Adipogenic Progenitors (FAPs) in human skeletal muscle. The tissue type, cell type, age, pathological condition and muscle fibrotic state of each biopsy sample are specified in table below.
(§2) The muscle biopsies were finely minced and explants were plated onto non-coated Petri dishes in drops of fetal bovine serum (FBS) (Invitrogen, Carlsbad, CA) as previously described (Bigot et al., 2009). Cells were cultivated at 37° C. in a humid atmosphere containing 5% CO2 and in growth medium consisting of 199 medium (Life technologies, Paisley, UK) and Dulbecco's Modified Eagle Medium (DMEM, Life technologies) in a 1:4 ratio supplemented with 20% Fetal Bovine Serum (FBS, Invitrogen), 25 μg/ml fetuin (Life technologies), 0.5 ng/mL bFGF (Life technologies), 5 ng/ml EGF (Life technologies), 5 μg/mL insulin (Sigma-Aldrich) and 50 μg/mL gentamycin (Life Technologies). Cells were labelled with CD56 antibody coupled to microbeads (130-050-401, MACS; Miltenyi Biotec, Paris, France) and then separated using a immunomagnetic cell sorting system (MACS) according to the manufacturer's instructions. The myogenic purity of both cell fractions (CD56+, myogenic and CD56−, non-myogenic) was monitored by immunocytochemistry using an antibody against desmin (clone D33, Dako, Trappes, France), exclusively expressed in myogenic cells.
The method for quantification of ET-1 protein is described in Le Bihan et al. 2012. Treatment of FAPs to evaluate the effect of ET-1 was performed on 70-80% confluence cells that were rinsed twice with DMEM and treated 3 days with proliferation medium at 1% FBS (instead of 20%) containing either DMSO or 40 nM ET-1 (E7764, Sigma-Aldrich)+/−10 μM Bosentan (SML1265, Sigma Aldrich), 10 nM BQ788 (SML192621, Sigma Aldrich), or 10 nM BQ123 (B150, Sigma-Aldrich). For proliferation experiment, Edu (10 μM) was added at day 2 and cells were fixed 24 h later. EdU labeling was carried out using the Click-iT™ EdU Cell Proliferation Kit (C10338, Life Technologies) according to the manufacturer's instructions. […]

Assay [2] has the same test system. As to the kind of experiment: Edu proliferation of FAPs treated with ET-1 +/- antagonist. The following applies: 3 days.
Text: as §1
as §2, with “Cells were labelled with CD56 antibody coupled to microbeads (130-050-401, MACS; Miltenyi Biotec, Paris, France) and then separated using a immunomagnetic cell sorting system (MACS) according to the manufacturer's instructions.” left out
The method for quantification of ET-1 protein is described in Le Bihan et al. 2012. […]

Assay [3] relates to myoblast cocultured with FAPs from FibM^OP. As to the kind of experiment: Coculture of myoblasts with FAPs from fibrotic muscle, fusion index. Conditions: Bosentan 10 μM added at day 0 and day 3, fixed at day 5, myoblasts/FAPs 70%/30%. Here is the method:
Non-myogenic (CD56-) and myogenic (CD56+) cells were seeded together at a 30%/70% ratio and at a final confluence of 21000 cells/cm2. Once the cells have adhered, the medium was replaced by a differentiation medium composed by DMEM with 50 μg/mL gentamycin. To study the effect of Bosentan on the fusion index in coculture 10 μM of Bosentan (SML1265, Sigma Aldrich) was added to the wells at day 0 and day 3. Cells were fixed at day 5 in 4% paraformaldehyde (PFA). The fusion index was calculated as the ratio between the number of nuclei per myotube (>2 nuclei) identified by a desmin staining and the total number of desmin+nuclei. Immunostaining were performed on cells fixed in 4% PFA for 10 minutes (min) and incubated with blocking solution (PBS 2% FBS 0.2% Triton) for 30 minutes (min). Fixed cells were then incubated 1 h with primary antibodies (COL7A1 […] Sigma Aldrich 1/800; Desmin […] Dako 1/50). Detection of immune complexes was performed using the appropriate Alexa-Fluor-secondary antibodies purchased from Life Technologies (Grand Island, NY) for 45 min. Nuclei and actin filament were counterstained with Hoechst and Phalloidin-Alexa 568 (Interchim 1/400) respectively.

In the case of `CC(C)C[C@@H]1NC(=O)[C@@H](C(C)C)NC(=O)[C@@H]2CCCN2C(=O)[C@@H](CC(=O)O)NC(=O)[C@@H](Cc2c[nH]c3ccccc23)NC1=O` [BQ123] (cyclo(L[dW][dD]P[dV])), in assay [1] (ET-1 40 nM + antagonist 10 nM), the “ECM production (percentage of COL7A1 positive cells)” value is on record as “decrease of ECM production”.

Consider `COc1ccccc1Oc1c(NS(=O)(=O)c2ccc(C(C)(C)C)cc2)nc(-c2ncccn2)nc1OCCO` [Bosentan], for which the “ECM production (percentage of COL7A1 positive cells)” value in assay [1] (ET-1 40 nM + Bosentan 10 μM) is listed as “partially abolished the effect of ET1”. For the same molecule, the “proliferation (percentage of Edu positive cells)” value in assay [2] (ET-1 40 nM + Bosentan 10 μM) is on record as “partially abolished the effect of ET1; also recorded: decrease of proliferation”. For the same molecule, in assay [3], the fusion index result is listed as “partially restored to control levels”.

Consider `CC[C@H](C)[C@H](NC(=O)[C@H](CC(=O)O)NC(=O)[C@H](CC(C)C)NC(=O)[C@H](Cc1c[nH]cn1)NC(=O)[C@@H]1CSSC[C@H](N)C(=O)N[C@@H](CO)C(=O)N[C@H]2CSSC[C@H](NC(=O)[C@H](CCC(=O)O)NC(=O)[C@H](CCCCN)NC(=O)[C@H](CC(=O)O)NC(=O)[C@H](CCSC)NC(=O)[C@H](CC(C)C)NC(=O)[C@H](CO)NC(=O)[C@H](CO)NC2=O)C(=O)N[C@@H](C(C)C)C(=O)N[C@@H](Cc2ccc(O)cc2)C(=O)N[C@@H](Cc2ccccc2)C(=O)N1)C(=O)N[C@H](C(=O)N[C@@H](Cc1c[nH]c2ccccc12)C(=O)O)[C@@H](C)CC` [ET1], for which the “ECM production (percentage of COL7A1 positive cells)” value in assay [1] (ET-1 40 nM, vs DMSO) is given as “increased”. In addition, the “proliferation (percentage of Edu positive cells)” value in assay [2] (ET-1 40 nM, vs DMSO) is “increased”.

On to `CCCC[C@@H](NC(=O)[C@@H](Cc1cn(C(=O)OC)c2ccccc12)NC(=O)[C@H](CC(C)(C)C)NC(=O)N1[C@H](C)CCC[C@@H]1C)C(=O)O` [BQ788], for which the “ECM production (percentage of COL7A1 positive cells)” value in assay [1] (ET-1 40 nM + antagonist 10 nM) is listed as “decrease of ECM production”. The “proliferation (percentage of Edu positive cells)” value in assay [2] (ET-1 40 nM + BQ788 10 nM) was “decrease of proliferation”.

The record behind these values is patent US20250009747A1, “ENDOTHELIN RECEPTOR ANTAGONISTS FOR USE IN TREATING OR PREVENTING MUSCLE FIBROSIS” (ASSOCIATION INSTITUT DE MYOLOGIE, priority 2021, published 2025).
